Test results reported in patent publication US20260248752A1, “Oral Care Product And Methods Of Use And Manufacture Thereof” (Colgate-Palmolive Company, priority 2019, published 2026).

Assays:
Format in all cases: cell-based, Streptococcus mutans
S. mutans = assay: Growth inhibition of S. mutans in culture by neat solutions of xylitol and/or arginine; conditions: 24 hours after administration of neat solutions, absence of added sucrose
Description: The ability of xylitol to inhibit the growth of S. mutans is tested in combination with arginine in culture. Percent growth inhibition is measured at 24 hours after administration of the neat solutions listed in the below table.
Results in Table 2 are obtained in the absence of added sucrose.

S. mutans biofilm [1] = assay: pH drop of S. mutans biofilm from glycolysis (total AUC of delta pH); conditions: for Total AUC of Δ pH: after 24 hours of exposure and addition of growth media, lower AUC = less pH reduction; for Δ (vs control) of total AUC of Δ pH: difference from control (no arginine or xylitol) AUC 29.5
Text: Such drops in pH can be harmful to the health of the oral cavity.

planktonic S. mutans = assay: Minimum inhibitory concentration of xylitol, planktonic S. mutans growth (OD 610 nm); conditions: for growth of S. mutans, optical density (OD 610 nm), mean: 24 hours of exposure
Description: Determining Minimum Inhibitory Concentration (MIC) of Xylitol: In a separate experiment, simple solutions with only xylitol at varying concentrations, tested in combination with a control, are also tested to determine the minimum inhibitor concentration of xylitol needed to inhibit planktonic S. mutans growth in culture.

S. mutans biofilm [2] = assay: S. mutans biofilm formation by crystal violet staining (OD 590 nm); conditions: for S. mutans biofilm formation, crystal violet staining (OD 590 nm), mean: 24 hours of exposure
Description: Determining Biofilm Formation with varying amounts of Xylitol: In a separate experiment, simple solutions with only xylitol at varying concentrations, tested in combination with a control, are also tested to determine the minimum amount of xylitol needed to prevent S. mutans biofilm accretion in culture. It is determined that at least 5% xylitol is necessary to inhibit biofilm accretion in culture after 24 hours of exposure.

[3] = in culture after 24 hours of exposure

## N=C(N)NCCC[C@H](N)C(=O)O [1.5% arginine, arginine]
S. mutans
  % growth inhibition relative to control: 4.1%
S. mutans biofilm [1]
  Total AUC of Δ pH: 28.9
  Δ (vs control) of total AUC of Δ pH: 0.6

## OC[C@@H](O)[C@H](O)[C@@H](O)CO [Xylitol]
S. mutans; listed as 1% xylitol
  % growth inhibition relative to control: 17.9%
S. mutans; listed as 5% xylitol
  % growth inhibition relative to control: 40.3%
S. mutans; listed as 10% xylitol
  % growth inhibition relative to control: 45.6%
Planktonic S. mutans; [3]
  minimum inhibitory concentration of xylitol needed to inhibit planktonic S. mutans growth: at least 10%
Planktonic S. mutans; xylitol 0.15625%
  growth of S. mutans, optical density (OD 610 nm), mean: 0.256
Planktonic S. mutans; xylitol 0.3125%
  growth of S. mutans, optical density (OD 610 nm), mean: 0.268
Planktonic S. mutans; xylitol 0.625%
  growth of S. mutans, optical density (OD 610 nm), mean: 0.241
Planktonic S. mutans; xylitol 1.25%
  growth of S. mutans, optical density (OD 610 nm), mean: 0.188
Planktonic S. mutans; xylitol 2.5%
  growth of S. mutans, optical density (OD 610 nm), mean: 0.165
Planktonic S. mutans; xylitol 5%
  growth of S. mutans, optical density (OD 610 nm), mean: 0.114
Planktonic S. mutans; xylitol 10%
  growth of S. mutans, optical density (OD 610 nm), mean: 0.097
Planktonic S. mutans; xylitol 20%
  growth of S. mutans, optical density (OD 610 nm), mean: 0.089
Planktonic S. mutans; xylitol 40%
  growth of S. mutans, optical density (OD 610 nm), mean: 0.071
S. mutans biofilm [2]; [3]
  minimum amount of xylitol needed to prevent S. mutans biofilm accretion: at least 5%
S. mutans biofilm [2]; xylitol 0.15625%
  S. mutans biofilm formation, crystal violet staining (OD 590 nm), mean: 0.327
S. mutans biofilm [2]; xylitol 0.3125%
  S. mutans biofilm formation, crystal violet staining (OD 590 nm), mean: 0.338
S. mutans biofilm [2]; xylitol 0.625%
  S. mutans biofilm formation, crystal violet staining (OD 590 nm), mean: 0.301
S. mutans biofilm [2]; xylitol 1.25%
  S. mutans biofilm formation, crystal violet staining (OD 590 nm), mean: 0.254
S. mutans biofilm [2]; xylitol 2.5%
  S. mutans biofilm formation, crystal violet staining (OD 590 nm), mean: 0.221
S. mutans biofilm [2]; xylitol 5%
  S. mutans biofilm formation, crystal violet staining (OD 590 nm), mean: 0.136
S. mutans biofilm [2]; xylitol 10%
  S. mutans biofilm formation, crystal violet staining (OD 590 nm), mean: 0.122
S. mutans biofilm [2]; xylitol 20%
  S. mutans biofilm formation, crystal violet staining (OD 590 nm), mean: 0.123
S. mutans biofilm [2]; xylitol 40%
  S. mutans biofilm formation, crystal violet staining (OD 590 nm), mean: 0.109
S. mutans biofilm [1]; listed as 1% xylitol
  Total AUC of Δ pH: 27.8
  Δ (vs control) of total AUC of Δ pH: 1.7
S. mutans biofilm [1]; listed as 5% xylitol
  Total AUC of Δ pH: 25.3
  Δ (vs control) of total AUC of Δ pH: 4.2
S. mutans biofilm [1]; listed as 10% xylitol
  Total AUC of Δ pH: 24.0
  Δ (vs control) of total AUC of Δ pH: 5.5
